Test results published in US20020156115A1, “Insecticidal and acaricidal composition, and methods of using the same” (AGRO-KANESHO CO., LTD., priority 1999, published 2002).

Legend:
Format in all cases: in vivo
[1] = tested on: diamond backmoth (Plutella xylostera); assay: Insecticidal effect on larvae of diamond backmoth (cabbage leaf dip); conditions: 500 ppm; cabbage leaf immersed 1 minute; third-instar larvae; fourth day; 25° C.
Experimental: Insecticidal Effect on Larvae of Diamond Backmoth (Plutella xylostera) The present insecticide prepared according to the Preparation Example was diluted with water. A piece (diameter: 6 cm) of a cabbage leaf was immersed in the diluted insecticide for 1 minute. After air drying, the piece was placed in a plastic cup (inner diameter: 7 cm). 5 third-instar larvae of diamond backmoth (Plutella xylostera) were put in the cup (1 concentration, repetition: twice). The cup was kept in a constant temperature room at 25° C. On the fourth day, the survival rate and degree of writhing of the larvae were examined. The writhing larvae were each counted to be ½.

[2] = tested on: two-spotted red spiders (Tetranychus telarius); assay: Acaricidal effect on two-spotted red spiders, imago-killing rate, 500 ppm leaf immersion; conditions: female imagoes on green bean leaf, leaf immersion about 5 seconds, concentration 500 ppm, fifth day after treatment, 25° C.
Experimental: (§1) Acaricidal Effect on Larvae of Two-Spotted Red Spiders (Tetranychus telarius): A stem of green bean seedling having only one primary left was placed in a test tube (capacity: 50 ml) containing water. 15 female imagoes of two-spotted red spiders were put on each leaf. One day after, the leaf having the two-spotted red spiders was immersed (about 5 seconds) in the present insecticide diluted with water, which had been prepared according to the Preparation Example, (concentration: 500 ppm, repetition: twice). They were kept in a constant-temperature room at 25° C. On the fifth day after the treatment, the female imagoes on the leaf of the green bean seedling were observed. The imago-killing rate (%) was determined on the basis of the results of the observation to obtain the results shown in Table 6.

[3] = tested on: eggs of two-spotted red spiders (Tetranychus telarius); assay: Acaricidal effect on eggs of two-spotted red spiders, ovicidal rate, 500 ppm spray; conditions: eggs on green bean leaf disc; spray 3.5 ml; concentration 500 ppm; 8 days after treatment
Experimental: Acaricidal Effect on Eggs of Two-Spotted Red Spiders (Tetranychus telarius) 5 female imagoes of two-spotted red spiders were released on a green been leaf disc (diameter: 3 cm). Then, the imagoes were left to lay eggs on the leaf disc for 20 hours and then removed therefrom. The present acaricide which had been prepared according to Preparation Example 1 was diluted with water to a predetermined concentration. 3.5 ml of the preparation thus obtained was sprayed with a rotary spraying column (Mizuho Rika) over the disc (concentration: 500 ppm, repetition: twice). 8 days after the treatment, the number of unhatched eggs was counted to determine the ovicidal rate (%).

[4] = tested on: two-spotted red spiders (Tetranychus telarius); assay: Acaricidal effect of a low concentration (12.5 ppm) on two-spotted red spiders; conditions: leaf immersion, female imagoes, fifth day after treatment, 25° C.
Experimental: as §1, with “A” for “Acaricidal Effect on Larvae of Two-Spotted Red Spiders (Tetranychus telarius): A”
Acaricidal Effect of a Low Concentration of Acaricide on Larvae of Two-Spotted Red Spiders (Tetranychus telarius)
The same tests as those of Test Example 2 were repeated except that the concentration of the acaricide was changed to 12.5 ppm.

Question: What does the source list for CO/C=C(/C(=O)OC)c1c(C#Cc2cccc(C(F)(F)F)c2)c(C)nn1C [Table 1-2]?
Answer: Killing rate [1]: 60%; Acaricidal rate (%) [2]: 100%; Ovicidal rate (%) [3]: 100%

Question: Which results are given for COC=C(C(=O)OC)c1c(C#Cc2ccc(C(F)(F)F)cc2)c(C)nn1C [Table 1-3, Methyl α-{1,3-dimethyl-4-(4-trifluoromethylphenylethynyl)-5-pyrazole}-β-methoxyacrylate]?
Answer: Killing rate [1]: 80%; Acaricidal rate (%) [2]: 100%; Ovicidal rate (%) [3]: 100%; acaricidal effect [4]: 100%

Question: For COC=C(C(=O)OC)c1c(C#Cc2cc(C(F)(F)F)cc(C(F)(F)F)c2)c(C)nn1C [Table 1-5, Methyl α-[1,3-dimethyl-4-{3,5-bis(trifluoromethyl)phenylethynyl}-5-pyrazole]-β-methoxyacrylate], which Killing rate [1] is on record?
Answer: 100%

Question: And the “Acaricidal rate (%)” value [2]?
Answer: 100%

Question: And the “Ovicidal rate (%)” value [3]?
Answer: 100%

Question: What about the acaricidal effect [4] of the same compound?
Answer: 100%

Question: With CO/C=C(/C(=O)OC)c1c(C#Cc2cc(F)cc(Cl)c2)c(C)nn1C [Table 1-7] as the compound, how does the Killing rate [1] read?
Answer: 80%

Question: And the “Acaricidal rate (%)” value [2]?
Answer: 100%

Question: And the “Ovicidal rate (%)” value [3]?
Answer: 100%

Question: And the acaricidal effect [4]?
Answer: 100%

Question: For CO/C=C(/C(=O)OC)c1c(C#Cc2cc(F)cc(F)c2)c(C)nn1C [Table 1-8], which Killing rate [1] is on record?
Answer: 100%

Question: And the “Acaricidal rate (%)” value [2]?
Answer: 100%

Question: And the “Ovicidal rate (%)” value [3]?
Answer: 100%

Question: And the acaricidal effect [4]?
Answer: 100%

Question: What does the source list for CO/C=C(/C(=O)OC)c1c(C#Cc2ccc(Oc3ccc(C(F)(F)F)cc3)cc2)c(C)nn1C [Table 1-10]?
Answer: Killing rate [1]: 100%; Acaricidal rate (%) [2]: 100%; Ovicidal rate (%) [3]: 100%; acaricidal effect [4]: 100%

Question: With CO/C=C(/C(=O)OC)c1c(C#Cc2ccc(Oc3cc(C(F)(F)F)cc(C(F)(F)F)c3)cc2)c(C)nn1C [Table 1-11] as the compound, how does the Killing rate [1] read?
Answer: 100%

Question: And the “Acaricidal rate (%)” value [2]?
Answer: 100%

Question: What about the “Ovicidal rate (%)” value [3] of the same compound?
Answer: 100%

Question: And the acaricidal effect [4]?
Answer: 100%

Question: CO/C=C(/C(=O)OC)c1c(C#Cc2ccc(Oc3ccc(F)cc3Cl)cc2)c(C)nn1C [Table 1-12] was tested. Which Killing rate [1] did it give?
Answer: 100%

Question: And the “Acaricidal rate (%)” value [2]?
Answer: 100%

Question: And the “Ovicidal rate (%)” value [3]?
Answer: 100%

Question: What about the acaricidal effect [4] of the same compound?
Answer: 100%

Question: With CO/C=C(/C(=O)OC)c1c(C#Cc2ccc(Oc3ccc(C(F)(F)F)cn3)cc2)c(C)nn1C [Table 1-13] as the compound, how does the Killing rate [1] read?
Answer: 100%

Question: What about the “Acaricidal rate (%)” value [2] of the same compound?
Answer: 100%

Question: And the “Ovicidal rate (%)” value [3]?
Answer: 100%

Question: Which results are given for CCc1nn(C)c(/C(=C\OC)C(=O)OC)c1C#Cc1cc(C(F)(F)F)cc(C(F)(F)F)c1 [Table 1-14]?
Answer: Killing rate [1]: 74%; Acaricidal rate (%) [2]: 100%; Ovicidal rate (%) [3]: 100%; acaricidal effect [4]: 100%

Question: What does the source list for CO/C=C(/C(=O)OC)c1c(C#Cc2cc(C(F)(F)F)cc(C(F)(F)F)c2)c(C(C)C)nn1C [Table 1-17]?
Answer: Killing rate [1]: 89%; Acaricidal rate (%) [2]: 100%; Ovicidal rate (%) [3]: 100%; acaricidal effect [4]: 100%

Question: For CCn1nc(C)c(C#Cc2cc(C(F)(F)F)cc(C(F)(F)F)c2)c1C(=COC)C(=O)OC [Table 1-21, Methyl α-[1-ethyl-3-methyl-4-{3,5-bis(trifluoromethyl)phenylethynyl}-5-pyrazole]-β-methoxyacrylate], which Killing rate [1] is on record?
Answer: 100%

Question: And the “Acaricidal rate (%)” value [2]?
Answer: 100%

Question: And the “Ovicidal rate (%)” value [3]?
Answer: 100%

Question: What about the acaricidal effect [4] of the same compound?
Answer: 100%

Question: With CCn1nc(C)c(C#Cc2cc(C(F)(F)F)cc(C(F)(F)F)c2)c1/C(=C/OC)C(=O)OC [Table 1-22] as the compound, how does the Killing rate [1] read?
Answer: 90%

Question: And the “Acaricidal rate (%)” value [2]?
Answer: 100%

Question: What about the “Ovicidal rate (%)” value [3] of the same compound?
Answer: 100%

Question: What about the acaricidal effect [4] of the same compound?
Answer: 100%

Question: CO/C=C(/C(=O)OC)c1c(C#Cc2ccc(OC(F)(F)F)cc2)c(C)nn1C [Table 1-29] was tested. Which Killing rate [1] did it give?
Answer: 85%

Question: What about the “Acaricidal rate (%)” value [2] of the same compound?
Answer: 100%

Question: And the “Ovicidal rate (%)” value [3]?
Answer: 100%

Question: What about the acaricidal effect [4] of the same compound?
Answer: 100%

Question: Which Killing rate [1] does the source give for CO/C=C(/C(=O)OC)c1c(OCc2cc(C(F)(F)F)cc(C(F)(F)F)c2)c(C)nn1C [Table 2-1] here?
Answer: 87%

Question: What about the “Acaricidal rate (%)” value [2] of the same compound?
Answer: 100%

Question: And the “Ovicidal rate (%)” value [3]?
Answer: 100%

Question: And the acaricidal effect [4]?
Answer: 100%

Question: Which Killing rate [1] does the source give for CO/C=C(/C(=O)OC)c1c(OCc2cccc(Oc3ccc(C(F)(F)F)cc3)c2)c(C)nn1C [Table 2-3] here?
Answer: 100%

Question: And the “Acaricidal rate (%)” value [2]?
Answer: 100%

Question: What about the “Ovicidal rate (%)” value [3] of the same compound?
Answer: 100%

Question: What does the source list for CO/C=C(/C(=O)OC)c1c(OCc2ccc(C(C)(C)C)cc2)c(C)nn1C [Table 2-4]?
Answer: Killing rate [1]: 70%; Acaricidal rate (%) [2]: 100%; Ovicidal rate (%) [3]: 100%

Question: What does the source list for CO/C=C(/C(=O)OC)c1c(OCc2ccc(C(F)(F)F)cc2)c(C)nn1C [Table 2-5]?
Answer: Killing rate [1]: 90%; Acaricidal rate (%) [2]: 100%; Ovicidal rate (%) [3]: 100%

Question: Which Killing rate [1] does the source give for CCc1nn(C)c(/C(=N\OC)C(=O)OC)c1CON=C(C)c1ccc(C(F)(F)F)cc1 [Table 3-73] here?
Answer: 100%

Question: CCc1nn(C)c(/C(=N\OC)C(=O)OC)c1CON=C(C)c1cccc(OC(F)F)c1 [Table 3-76] was tested. Which Killing rate [1] did it give?
Answer: 100%

Question: How did the Killing rate [1] turn out when CO/C=C(/C(=O)OC)c1c(CON=C(C)c2ccc(OC(F)(F)F)cc2)c(C)nn1C [Table 3-101] was run?
Answer: 100%

Question: What about the “Acaricidal rate (%)” value [2] of the same compound?
Answer: 100%

Question: And the “Ovicidal rate (%)” value [3]?
Answer: 100%
